Test system: Sphaerotheca fuliginea
Assay: Activity against mildew on cucumber leaves caused by Sphaerotheca fuliginea, protective application
Assay type: in vivo
Details: 250 ppm active compound, sprayed to runoff, cucumber seedlings, assessed after 7 days, untreated plants 90% infected
Protocol: The active compounds were separately prepared as a stock solution of 0.25% by weight of active compound in acetone or DMSO. 1% by weight of emulsifier Uniperol® EL (wetting agent having emulsifying and dispersing action based on ethoxylated alkylphenols) was added to this solution, and the solution was diluted with water to the desired concentration. Leaves of potted cucumber seedlings of the cultivar “Chinese snake” were, at the cotyledon stage, sprayed to runoff point with an aqueous suspension having the concentration of active compound stated below. 20 hours after the spray coating had dried on, the plants were inoculated with an aqueous spore suspension of mildew of cucumber (Sphaerotheca fuliginea). The plants were then cultivated in a greenhouse at temperatures between 20 and 24° C. and 60 to 80% relative atmospheric humidity for 7 days. The extent of the mildew development was then determined visually in % infection of the cotyledon area.

SMILES: CC1CCN(c2c(-c3c(F)cc(F)cc3F)c(Cl)nc3c(Cl)cnn23)CC1 [III-1, 3,5-Dichloro-7-(4-methylpiperidin-1-yl)-6-(2,4,6-trifluorophenyl)-pyrazolo[1,5-a]pyrimidine]
- extent of the mildew development, determined visually in % infection of the cotyledon area: no infection

Source: patent US20060258685A1, “Substituted pyrazolopyrimidines, methods for the production thereof, use of the same for controlling pathogenic fungi, and agents containing said compounds” (priority 2003, published 2006)
